Results on one molecule are retold here after ChEMBL document CHEMBL4808208, “Hepatoselective Dihydroquinolizinone Bis-acids for HBsAg mRNA Degradation” (ACS Med Chem Lett, 2021).

Several values for one entry are separate records, joined by “and”; a condition that tells them apart may be missing. Identical values can stand only once.

One data set concerns Hepatitis B virus. The data set is described as follows: Antiviral activity against Hepatitis B virus infected in human HepG2.2.15 cells assessed as reduction in HBsAg level measured after 4 days by AlphaLisa assay. Type of data set: functional, organism-based. As to conditions: HepG2.2.15, 96 h. For orientation: Bead proximity is the source of the signal in Alpha formats.
Data set [1] addresses T1, Solute carrier organic anion transporter family member 1B3 (Homo sapiens, UniProt Q9NPD5).
T1 sequence (Q9NPD5 whole entry): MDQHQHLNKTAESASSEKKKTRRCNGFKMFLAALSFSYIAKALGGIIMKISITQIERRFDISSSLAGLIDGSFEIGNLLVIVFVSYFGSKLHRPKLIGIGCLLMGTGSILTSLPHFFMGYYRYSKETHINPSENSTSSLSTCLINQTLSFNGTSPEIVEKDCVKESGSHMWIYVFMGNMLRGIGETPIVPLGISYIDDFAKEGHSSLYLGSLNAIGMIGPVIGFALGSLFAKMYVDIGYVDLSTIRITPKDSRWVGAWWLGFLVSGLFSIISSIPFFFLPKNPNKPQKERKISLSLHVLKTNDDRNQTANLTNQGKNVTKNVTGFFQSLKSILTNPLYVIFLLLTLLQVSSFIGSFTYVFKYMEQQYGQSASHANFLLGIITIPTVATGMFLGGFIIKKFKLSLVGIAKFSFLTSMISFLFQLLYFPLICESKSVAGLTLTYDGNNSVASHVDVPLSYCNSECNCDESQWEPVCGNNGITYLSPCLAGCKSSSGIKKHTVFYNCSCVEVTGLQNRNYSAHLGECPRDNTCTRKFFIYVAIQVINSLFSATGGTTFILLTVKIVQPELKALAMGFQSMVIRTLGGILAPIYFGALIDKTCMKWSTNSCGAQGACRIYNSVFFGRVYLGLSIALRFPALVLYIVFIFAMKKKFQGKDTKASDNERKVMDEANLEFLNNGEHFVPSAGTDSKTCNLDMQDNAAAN
The data set is described as follows: Substrate activity at OATP1B3 (unknown origin) expressed in HEK293 cells assessed as ratio of drug uptake in absence of transporter inhibitor, estradiol-17beta-glucuronide to drug uptake in presence of transporter inhibitor, estradiol-17beta-glucuronide by LC-MS/MS analysis. Type of data set: ADME, cell-based.

For another data set, the target named is Cytochrome P450 2C19 (Homo sapiens, UniProt P33261). The data set is described as follows: Inhibition of CYP2C19 in human liver microsomes using mephenytoin as substrate preincubated for 5 mins followed by NADPH addition by LC-MS/MS analysis. Type of data set: ADME. In general terms: Microsomes from liver hold many membrane-bound enzymes, among them those of drug oxidation.
Sequence of Cytochrome P450 2C19 (P33261 whole entry): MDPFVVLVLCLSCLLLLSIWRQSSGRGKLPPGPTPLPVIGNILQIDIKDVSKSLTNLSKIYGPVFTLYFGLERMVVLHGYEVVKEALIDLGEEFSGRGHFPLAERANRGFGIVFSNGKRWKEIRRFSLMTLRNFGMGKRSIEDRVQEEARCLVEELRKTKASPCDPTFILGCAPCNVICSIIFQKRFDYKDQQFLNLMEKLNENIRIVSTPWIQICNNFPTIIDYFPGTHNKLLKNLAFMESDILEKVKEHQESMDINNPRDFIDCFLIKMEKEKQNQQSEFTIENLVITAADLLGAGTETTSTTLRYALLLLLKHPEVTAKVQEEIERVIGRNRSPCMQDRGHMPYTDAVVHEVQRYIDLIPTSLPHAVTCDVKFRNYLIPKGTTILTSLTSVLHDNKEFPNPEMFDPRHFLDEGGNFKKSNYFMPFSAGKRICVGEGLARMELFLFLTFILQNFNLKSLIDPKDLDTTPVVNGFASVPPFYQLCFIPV

Data set [2] in a line: Cmax in CD-1 mouse plasma at 8 mg/kg, po measured for 24 hrs by LC-MS/MS analysis. Type of data set: ADME, organism-based. Details: route oral, dose 8 mg/kg, time 24 hrs.
A short description of data set [3]: Drug concentration in CD-1 mouse liver at 8 mg/kg, po measured after 6 hrs by LC-MS/MS analysis. The data set is classed as ADME, organism-based. As to conditions: read-out: Ct.
For another data set, the target named is Cytochrome P450 3A4 (Homo sapiens, UniProt P08684). The data set is described as follows: Inhibition of CYP3A4 in human liver microsomes using testosterone as substrate preincubated for 5 mins followed by NADPH addition by LC-MS/MS analysis. The data set is classed as ADME.
Sequence of Cytochrome P450 3A4 (P08684 whole entry): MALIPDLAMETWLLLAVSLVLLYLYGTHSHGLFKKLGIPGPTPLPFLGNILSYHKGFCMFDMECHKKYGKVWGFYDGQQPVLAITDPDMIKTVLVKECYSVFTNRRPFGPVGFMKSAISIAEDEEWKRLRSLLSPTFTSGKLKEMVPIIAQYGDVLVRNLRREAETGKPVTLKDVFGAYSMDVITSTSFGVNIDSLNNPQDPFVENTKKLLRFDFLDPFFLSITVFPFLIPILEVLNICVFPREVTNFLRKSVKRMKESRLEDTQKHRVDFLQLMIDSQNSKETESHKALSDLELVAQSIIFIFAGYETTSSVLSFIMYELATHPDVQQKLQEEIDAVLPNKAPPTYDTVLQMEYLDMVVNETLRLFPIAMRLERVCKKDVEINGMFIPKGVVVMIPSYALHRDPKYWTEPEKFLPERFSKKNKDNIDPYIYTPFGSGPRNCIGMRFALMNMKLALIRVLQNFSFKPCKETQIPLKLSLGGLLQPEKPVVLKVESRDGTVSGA

Usually EC50 stands for the midpoint of the concentration-response curve. As a reminder, the IC50 is the concentration that inhibits the measured activity by half. Read a low IC50 as inhibition by little substance. Broadly, the Cmax is the maximum level reached in the sampled fluid or tissue.

Regarding `COc1cc2c(cc1OCCCCCCC(=O)O)C[C@@H](C(C)C)n1cc(C(=O)O)c(=O)cc1-2`, the EC50 in the data set with Hepatitis B virus came to 0.023 µM. Moreover, in data set [1], the Ratio worked out at 11.57. For the same molecule, the IC50 against Cytochrome P450 2C19 and on Cytochrome P450 3A4 was over 10 µM in each case. In data set [2], this molecule registered a Cmax of 16.1 ng/mL. Moreover, the concentration at 6 h in data set [3] was 76 ng/mL and 170 nM.
